In patent publication US20250353873A1, “COMPOUNDS AND METHODS FOR MODULATING APOE EXPRESSION” (Ionis Pharmaceuticals, Inc., priority 2024, published 2025):
Strand notation (5' to 3'): a small letter for the sugar, then the base; units joined by * are phosphorothioate-linked, units joined directly phosphodiester-linked; [ ] holds rarer units or linkages, { } end groups; capitals alone tell only the bases. [ms] = mesyl phosphoramidate linkage; k = constrained ethyl (cEt); [5mC] = 5-methylcytosine; d = 2'-deoxy (DNA)

Assays:
human APOE RNA [1] = assay: Dose-dependent reduction of human APOE RNA in HepG2 cells, electroporation, 20,000 cells per well, average of GAPDH- and PPIA-normalized results (Example 4, Table 12); type: cell-based; conditions: HepG2, 20,000 cells per well
Method: HepG2 cells plated at a density of 20,000 cells per well were treated by electroporation with various concentrations of modified oligonucleotide as specified in the tables below. […] APOE RNA levels were measured using the human primer probe set RTS3073 (described herein above). APOE RNA levels were normalized to human GAPDH, and human PPIA. Human GAPDH was amplified using human primer probe set RTS104 (described herein above). Human PPIA was amplified using human primer probe set mk_cycloA_2nd (described herein above) The average of the GAPDH-normalized results and the PPIA-normalized results are presented in the table below as percent APOE RNA, relative to the amount of APOE RNA in untreated control cells (% UTC). The half maximal inhibitory concentration (IC50) of each modified oligonucleotide was calculated in GraphPad Prism 10 (GraphPad Software, San Diego, CA) and is also presented in the table below.

human APOE RNA [2] = assay: Activity in APOE C57BL/6NTac-Apoeem7250 knock-in mice, single ICV bolus, 8 weeks (Example 11); type: in vivo; conditions: single ICV bolus 300 μg, 8 weeks post treatment, normalized to mouse Ppia
Method in brief: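 Cortical and spinal cord human APOE RNA quantified by RT-qPCR 8 weeks after a single 300 μg ICV dose in knock-in mice, Ppia-normalized. Values are percent of levels in PBS-treated animals.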

human APOE RNA [3] = assay: Activity in APOE C57BL/6NTac-Apoeem7250 knock-in mice, single ICV bolus, 4 weeks (Example 10); type: in vivo; conditions: single ICV bolus 300 μg, 4 weeks post treatment, normalized to mouse Ppia
Method in brief: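 Human APOE RNA, quantified by real-time RT-PCR with RTS3073 and normalized to mouse Ppia, was read in cortical brain and spinal cord 4 weeks post dosing. Dosing was a single ICV bolus of 300 μg per knock-in mouse; values are % of PBS-treated animals.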

human APOE RNA [4] = assay: Potency (dose response, ED50) in APOE C57BL/6NTac-Apoeem7250 knock-in mice, 4 weeks (Example 14); type: in vivo
Method: Modified oligonucleotides described above were tested in the APOE C57BL/6NTac-Apoeem7250 knock-in mouse model described above.
APOE C57BL/6NTac-Apoeem7250 knock-in mice were divided into groups of 3-4 mice each. A group of 3-4 mice received a single ICV bolus with PBS as a negative control.
Four weeks post treatment, mice were sacrificed, and RNA was extracted from cortical brain tissue and spinal cord for quantitative real-time RT-PCR analysis of RNA expression of […] using human primer probe set RTS3073 (described herein above). APOE RNA levels were normalized to mouse Ppia. Mouse Ppia was amplified using primer probe set m_cyclo24 (described herein above). Results are presented as percent human APOE RNA relative to the amount of APOE RNA in PBS treated animals, (% control). N.C. indicates values that were not calculated. Each experiment is identified in separate tables below.
The half maximal effective dose (ED50) of each modified oligonucleotide was calculated using GraphPad Prism 10 software (GraphPad Software, San Diego, CA).

human APOE RNA [5] = assay: Dose-dependent inhibition of human APOE RNA in differentiated SH-SY5Y cells, free uptake, 5 days (Example 5); type: cell-based; conditions: 5 days (Table 14)
Method in brief: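 APOE RNA, measured by RTS3073 primer probe set and normalized to human PPIA, is reported as % of untreated control cells, with IC50 fitted. Cells were differentiated SH-SY5Y at 10,000/well, given modified oligonucleotide at several concentrations by free uptake for 5 days.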

For “1785598: modified oligonucleotide complementary to human APOE RNA (k[5mC]*kT*kT*dG[ms]dG[ms]dT[ms]dG[ms]dA[ms]dA[ms]dT*d[5mC]*dT*dT*dT*dA*dT[ms]kT*kA*dA[ms]kA; antisense) [compound 1785598]”, the “APOE RNA (% UTC)” value (human APOE RNA [1]; 5 nM) was 103 % UTC, the “APOE RNA (% UTC)” value (human APOE RNA [1]; 13 nM) was 97 % UTC and the “APOE RNA (% UTC)” value (human APOE RNA [1]; 33 nM) was 88 % UTC. The “APOE RNA (% UTC)” value (human APOE RNA [1]; 82 nM) was 75 % UTC, the “APOE RNA (% UTC)” value (human APOE RNA [1]; 205 nM) was 56 % UTC and the “APOE RNA (% UTC)” value (human APOE RNA [1]; 512 nM) was 36 % UTC. For the same substance, the “APOE RNA (% UTC)” value (human APOE RNA [1]; 1,280 nM) was 23 % UTC, the “APOE RNA (% UTC)” value (human APOE RNA [1]; 3,200 nM) was 9 % UTC and the “APOE RNA (% UTC)” value (human APOE RNA [1]; 8,000 nM) was 11 % UTC. The “APOE RNA (% UTC)” value (human APOE RNA [1]; 20,000 nM) was 11 % UTC, the IC50 (human APOE RNA [1]; approximately 24 hours) was 0.29 µM and the “APOE RNA (% control) Cortex” value (human APOE RNA [2]; cortex) was 23 % control. The “APOE RNA (% control) Spinal Cord” value (human APOE RNA [2]; spinal cord) was 16 % control, the “APOE RNA (% control) Cortex” value (human APOE RNA [3]; cortex) was 29 % control and the “APOE RNA (% control) Spinal Cord” value (human APOE RNA [3]; spinal cord) was 40 % control. The “APOE RNA (% control) Cortex” value (human APOE RNA [4]; cortex, ICV dose 10 μg) was 104 % control, the “APOE RNA (% control) Cortex” value (human APOE RNA [4]; cortex, ICV dose 30 μg) was 84 % control and the “APOE RNA (% control) Cortex” value (human APOE RNA [4]; cortex, ICV dose 100 μg) was 60 % control. For the same substance, the “APOE RNA (% control) Cortex” value (human APOE RNA [4]; cortex, ICV dose 300 μg) was 37 % control, the “APOE RNA (% control) Cortex” value (human APOE RNA [4]; cortex, ICV dose 700 μg) was 23 % control and the “ED 50 (μg) Cortex” value (human APOE RNA [4]; cortex, single ICV bolus, GraphPad Prism 10) was 175.4 µg. For the same substance, the “APOE RNA (% control) Spinal Cord” value (human APOE RNA [4]; spinal cord, ICV dose 10 μg) was 97 % control, the “APOE RNA (% control) Spinal Cord” value (human APOE RNA [4]; spinal cord, ICV dose 30 μg) was 70 % control and the “APOE RNA (% control) Spinal Cord” value (human APOE RNA [4]; spinal cord, ICV dose 100 μg) was 65 % control. The “APOE RNA (% control) Spinal Cord” value (human APOE RNA [4]; spinal cord, ICV dose 300 μg) was 60 % control, the “APOE RNA (% control) Spinal Cord” value (human APOE RNA [4]; spinal cord, ICV dose 700 μg) was 41 % control and the “ED 50 (μg) Spinal Cord” value (human APOE RNA [4]; spinal cord, single ICV bolus, GraphPad Prism 10) was 416.7 µg. For the same substance, the “APOE RNA (% UTC)” value (human APOE RNA [5]; 5 nM) was 72 % UTC, the “APOE RNA (% UTC)” value (human APOE RNA [5]; 13 nM) was 59 % UTC and the “APOE RNA (% UTC)” value (human APOE RNA [5]; 33 nM) was 90 % UTC. For the same substance, the “APOE RNA (% UTC)” value (human APOE RNA [5]; 82 nM) was 57 % UTC, the “APOE RNA (% UTC)” value (human APOE RNA [5]; 205 nM) was 59 % UTC and the “APOE RNA (% UTC)” value (human APOE RNA [5]; 512 nM) was 39 % UTC. The “APOE RNA (% UTC)” value (human APOE RNA [5]; 1,280 nM) was 23 % UTC, the “APOE RNA (% UTC)” value (human APOE RNA [5]; 3,200 nM) was 23 % UTC and the “APOE RNA (% UTC)” value (human APOE RNA [5]; 8,000 nM) was 9 % UTC. The “APOE RNA (% UTC)” value (human APOE RNA [5]; 20,000 nM) was 11 % UTC and the IC50 (human APOE RNA [5]) was 0.18 µM.
